According to PubChem BioAssay (NCI):
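The concentration for 50% growth inhibition is given as GI50. TGI is the concentration that stops growth completely.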

What was measured:
Assay in all cases: DTP human tumour cell line panel, 384-well format
[1] = test system: SN12C renal
[2] = test system: SK-MEL-28 melanoma
[3] = test system: ACHN renal
[4] = test system: A549 NSCLC
[5] = test system: HCT-116 colon
[6] = test system: SNB-75 CNS
[7] = test system: OVCAR-5 ovarian
[8] = test system: NCI-H322M lung
[9] = test system: TK-10 renal
[10] = test system: NCI-H522 lung
[11] = test system: MDA-MB-435 melanoma
[12] = test system: NCI-H226 lung
[13] = test system: IGROV1 ovarian
[14] = test system: SF-539 CNS
[15] = test system: DU-145 prostate
[16] = test system: COLO 205 colon
[17] = test system: HCC-2998 colon
[18] = test system: KM12 colon
[19] = test system: SF-295 CNS
[20] = test system: A498 renal
[21] = test system: SK-MEL-5 melanoma
[22] = test system: MCF7 breast
[23] = test system: HOP-62 NSCLC
[24] = test system: OVCAR-4 ovarian
[25] = test system: OVCAR-8 ovarian
[26] = test system: HL-60(TB) leukemia
[27] = test system: K-562 leukemia
[28] = test system: UACC-62 melanoma
[29] = test system: M14 melanoma
[30] = test system: LOX IMVI melanoma
[31] = test system: OVCAR-3 ovarian
[32] = test system: CAKI-1 renal
[33] = test system: NCI/ADR-RES ovarian
[34] = test system: HOP-92 NSCLC
[35] = test system: HCT-15 colon
[36] = test system: MOLT-4 leukemia
[37] = test system: SW-620 colon
[38] = test system: UACC-257 melanoma
[39] = test system: UO-31 renal
[40] = test system: NCI-H23 lung
[41] = test system: EKVX NSCLC
[42] = test system: U251 glioblastoma
[43] = test system: SF-268 CNS
[44] = test system: CCRF-CEM leukemia
[45] = test system: HS 578T breast
[46] = test system: RXF 393 renal
[47] = test system: MDA-MB-231 breast
[48] = test system: PC-3 prostate
[49] = test system: SK-OV-3 ovarian
[50] = test system: HT29 colon
[51] = test system: T-47D breast
[52] = test system: RPMI-8226 leukemia
[53] = test system: SNB-19 CNS
[54] = test system: 786-0 renal
[55] = test system: NCI-H460 NSCLC
[56] = test system: MALME-3M melanoma
[57] = test system: BT-549 breast
[58] = test system: MDA-MB-468 breast
[59] = test system: SR leukemia

In the case of `CNC(=O)c1ccccc1Nc1cc(Nc2ccc(N3CCOCC3)cc2OC)ncc1C(F)(F)F`, the GI50 [1] is reported as 3.31 µM, the TGI [1] is reported as 27.1 µM and the GI50 [2] is reported as 2 µM. The TGI [2] was 16.7 µM, the GI50 [3] was 5.62 µM and the TGI [3] was 69.7 µM. The GI50 [4] was 0.371 µM, the TGI [4] was 13 µM and the GI50 [5] was 0.632 µM. For the same compound, the TGI [5] was 13.2 µM, the GI50 [6] was 4.25 µM and the TGI [6] was 21.4 µM. The GI50 [7] was 0.66 µM, the TGI [7] was 27.5 µM and the GI50 [8] was 5.28 µM. It also gave a TGI [8] of 46.2 µM, a GI50 [9] of 7.3 µM and a TGI [9] of 32 µM. The GI50 [10] was 0.877 µM, the TGI [10] was 20.4 µM and the GI50 [11] was 0.752 µM. The TGI [11] was over 100 µM, the GI50 [12] was 0.876 µM and the TGI [12] was over 100 µM. The GI50 [13] was 0.229 µM, the TGI [13] was 12.4 µM and the GI50 [14] was 1.7 µM. The TGI [14] was 16.8 µM, the GI50 [15] was 1.97 µM and the TGI [15] was 24.3 µM. For the same compound, the GI50 [16] was 0.309 µM, the TGI [16] was 1.85 µM and the GI50 [17] was 0.654 µM. For the same compound, the TGI [17] was 15.8 µM, the GI50 [18] was 0.523 µM and the TGI [18] was 8.06 µM. The GI50 [19] was 2.12 µM, the TGI [19] was 38.7 µM and the GI50 [20] was 11 µM. The TGI [20] was 28.3 µM, the GI50 [21] was 0.767 µM and the TGI [21] was 18 µM. The GI50 [22] was 0.447 µM, the TGI [22] was 18.5 µM and the GI50 [23] was 2.62 µM. The TGI [23] was 51.3 µM, the GI50 [24] was 16.1 µM and the TGI [24] was over 100 µM. For the same compound, the GI50 [25] was 4.08 µM, the TGI [25] was 19.8 µM and the GI50 [26] was 0.375 µM. For the same compound, the TGI [26] was 1.43 µM, the GI50 [27] was 2.69 µM and the TGI [27] was over 100 µM. The GI50 [28] was 0.354 µM, the TGI [28] was 14.4 µM and the GI50 [29] was 0.233 µM. The TGI [29] was 11.1 µM, the GI50 [30] was 1.23 µM and the TGI [30] was 12.1 µM. It also gave a GI50 [31] of 4.45 µM, a TGI [31] of 37.9 µM and a GI50 [32] of 6.33 µM. The TGI [32] was 21 µM, the GI50 [33] was 1.52 µM and the TGI [33] was 4.64 µM. The GI50 [34] was 1.02 µM, the TGI [34] was 10.2 µM and the GI50 [35] was 2.88 µM. It also gave a TGI [35] of 34.2 µM, a GI50 [36] of 0.969 µM and a TGI [36] of 10.5 µM. It also gave a GI50 [37] of 0.658 µM, a TGI [37] of 12.6 µM and a GI50 [38] of 0.397 µM. The TGI [38] was 23.3 µM, the GI50 [39] was 2.9 µM and the TGI [39] was 16.9 µM. It also gave a GI50 [40] of 0.277 µM, a TGI [40] of 9.47 µM and a GI50 [41] of 0.653 µM. It also gave a TGI [41] of 11.8 µM, a GI50 [42] of 4.4 µM and a TGI [42] of 48 µM. The GI50 [43] was 0.143 µM, the TGI [43] was 1.67 µM and the GI50 [44] was 0.722 µM. The TGI [44] was 11.5 µM, the GI50 [45] was 2.78 µM and the TGI [45] was 10.1 µM. It also gave a GI50 [46] of 2.82 µM, a TGI [46] of 14 µM and a GI50 [47] of 2.76 µM. For the same compound, the TGI [47] was 49.2 µM, the GI50 [48] was 15.9 µM and the TGI [48] was over 100 µM. The GI50 [49] was 5.44 µM, the TGI [49] was 41.9 µM and the GI50 [50] was 0.416 µM. The TGI [50] was 14.1 µM, the GI50 [51] was 9.99 µM and the TGI [51] was 23.3 µM. For the same compound, the GI50 [52] was 0.35 µM, the TGI [52] was 3.3 µM and the GI50 [53] was 10.9 µM. For the same compound, the TGI [53] was over 100 µM, the GI50 [54] was 2.75 µM and the TGI [54] was 19.8 µM. For the same compound, the GI50 [55] was 0.316 µM, the TGI [55] was 10.6 µM and the GI50 [56] was 0.303 µM. It also gave a TGI [56] of 15.1 µM, a GI50 [57] of 2.82 µM and a TGI [57] of 9.86 µM.

In the case of `COc1cccc2[nH]c3c4c(c5c(c3c12)C(=O)N(CN1CCN(C)CC1)C5=O)CCC4`, the GI50 [1] is reported as 12.5 µM, the TGI [1] is reported as 40.6 µM and the GI50 [2] is reported as 14.5 µM. For the same compound, the TGI [2] was 28.3 µM, the GI50 [58] was 8.27 µM and the TGI [58] was 21.1 µM. It also gave a GI50 [3] of 14.9 µM, a TGI [3] of 30.5 µM and a GI50 [4] of 12.5 µM. The TGI [4] was 26.3 µM, the GI50 [5] was 11.6 µM and the TGI [5] was 24.4 µM. It also gave a GI50 [6] of 13 µM, a TGI [6] of 25.9 µM and a GI50 [7] of 20.7 µM. The TGI [7] was 48.7 µM, the GI50 [8] was 14.4 µM and the TGI [8] was 27.8 µM. It also gave a GI50 [59] of 1.83 µM, a TGI [59] of 4.8 µM and a GI50 [9] of 10.7 µM. The TGI [9] was 22.7 µM, the GI50 [10] was 7.53 µM and the TGI [10] was 21.5 µM. It also gave a GI50 [11] of 13.7 µM, a TGI [11] of 29.1 µM and a GI50 [12] of 15.9 µM. For the same compound, the TGI [12] was 33.2 µM, the GI50 [13] was 12.5 µM and the TGI [13] was 29.6 µM. It also gave a GI50 [14] of 9.75 µM, a TGI [14] of 21.8 µM and a GI50 [15] of 14.4 µM. For the same compound, the TGI [15] was 27.9 µM, the GI50 [16] was 15.4 µM and the TGI [16] was 48.5 µM. It also gave a GI50 [17] of 21 µM, a TGI [17] of 66.1 µM and a GI50 [18] of 15.8 µM. The TGI [18] was 34.2 µM, the GI50 [19] was 13.9 µM and the TGI [19] was 27.2 µM. It also gave a GI50 [20] of 9.22 µM, a TGI [20] of 21.5 µM and a GI50 [21] of 3.44 µM. The TGI [21] was 14.3 µM, the GI50 [22] was 12.5 µM and the TGI [22] was 26.9 µM. For the same compound, the GI50 [23] was 11.5 µM, the TGI [23] was 24 µM and the GI50 [24] was 7.56 µM. For the same compound, the TGI [24] was 19.5 µM, the GI50 [25] was 9.47 µM and the TGI [25] was 23.1 µM. It also gave a GI50 [26] of 10.7 µM, a TGI [26] of 22.7 µM and a GI50 [28] of 12.5 µM. The TGI [28] was 25.3 µM, the GI50 [29] was 14.3 µM and the TGI [29] was 28.7 µM. It also gave a GI50 [30] of 13.7 µM, a TGI [30] of 26.9 µM and a GI50 [31] of 13.2 µM. It also gave a TGI [31] of 26.7 µM, a GI50 [32] of 10.9 µM and a TGI [32] of 23.2 µM. For the same compound, the GI50 [33] was 8.24 µM, the TGI [33] was 21 µM and the GI50 [34] was 17.3 µM. The TGI [34] was 31.3 µM, the GI50 [35] was 11.5 µM and the TGI [35] was 24.8 µM. The GI50 [36] was 6.13 µM, the TGI [36] was 19.1 µM and the GI50 [38] was 17.8 µM. The TGI [38] was 33 µM, the GI50 [40] was 14 µM and the TGI [40] was 27.3 µM. For the same compound, the GI50 [41] was 15.4 µM, the TGI [41] was 29.1 µM and the GI50 [42] was 12.1 µM. It also gave a TGI [42] of 24.6 µM, a GI50 [43] of 15.5 µM and a TGI [43] of 29.7 µM. For the same compound, the GI50 [45] was 15 µM, the TGI [45] was 29 µM and the GI50 [46] was 14.2 µM. For the same compound, the TGI [46] was 27.3 µM, the GI50 [47] was 16.1 µM and the TGI [47] was 29.9 µM. It also gave a GI50 [48] of 11.5 µM, a TGI [48] of 23.8 µM and a GI50 [49] of 11.2 µM. The TGI [49] was 23.6 µM, the GI50 [50] was 13.2 µM and the TGI [50] was 27.1 µM. It also gave a GI50 [51] of 12.3 µM, a TGI [51] of 32 µM and a GI50 [52] of 13.3 µM. The TGI [52] was 26.2 µM, the GI50 [53] was 12.3 µM and the TGI [53] was 24.8 µM. For the same compound, the GI50 [55] was 6.97 µM, the TGI [55] was 19.8 µM and the GI50 [56] was 13.5 µM. For the same compound, the TGI [56] was 26.5 µM, the GI50 [57] was 15.8 µM and the TGI [57] was 29.6 µM.
